This note sets out measurements from patent US10670605B2, “Cysteine reactive probes and uses thereof” (The Scripps Research Institute, priority 2015, dated 2020).

Test in all cases: Competitive isoTOP-ABPP, cell lysates
What all share (assay type): binding

One experiment addresses T1, NR3C1 C302 (P04150) (Homo sapiens, UniProt P04150).
T1 sequence (P04150 1-777): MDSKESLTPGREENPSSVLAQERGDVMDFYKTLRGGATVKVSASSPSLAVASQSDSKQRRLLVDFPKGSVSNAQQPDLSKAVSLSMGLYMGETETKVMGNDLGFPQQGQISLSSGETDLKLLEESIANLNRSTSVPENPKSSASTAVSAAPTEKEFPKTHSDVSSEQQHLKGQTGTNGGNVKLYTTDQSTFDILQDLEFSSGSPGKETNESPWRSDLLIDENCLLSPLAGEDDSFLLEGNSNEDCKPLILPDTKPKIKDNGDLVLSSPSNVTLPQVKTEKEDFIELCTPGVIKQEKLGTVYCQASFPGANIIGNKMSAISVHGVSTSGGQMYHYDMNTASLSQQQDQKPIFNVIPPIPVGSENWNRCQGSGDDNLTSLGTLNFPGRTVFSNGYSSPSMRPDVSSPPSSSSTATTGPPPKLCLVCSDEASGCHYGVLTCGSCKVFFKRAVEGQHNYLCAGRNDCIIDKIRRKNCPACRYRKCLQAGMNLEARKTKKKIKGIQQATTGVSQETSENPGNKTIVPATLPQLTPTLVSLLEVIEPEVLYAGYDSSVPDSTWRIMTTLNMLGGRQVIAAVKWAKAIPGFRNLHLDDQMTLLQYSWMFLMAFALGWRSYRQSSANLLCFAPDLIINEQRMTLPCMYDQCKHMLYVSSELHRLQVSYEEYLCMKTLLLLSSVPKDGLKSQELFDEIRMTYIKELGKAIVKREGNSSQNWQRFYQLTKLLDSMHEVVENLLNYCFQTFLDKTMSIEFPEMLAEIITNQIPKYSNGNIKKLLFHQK
The following applies: for R value (DMSO/fragment) / isoTOP-ABPP ratio, P04150_C302: 500 μM; for R value (DMSO/fragment): in vitro, MDA-MB-231; for isoTOP-ABPP ratio, P04150_C302: invitro; for isoTOP-ABPP ratio (reactivity profile), P04150_C302: 500 μm in-vitro ramos.

The target of the next experiment is USP16 C205 (Q9Y5T5) (Homo sapiens, UniProt Q9Y5T5).
Chain of USP16 C205 (Q9Y5T5) (Q9Y5T5 whole entry): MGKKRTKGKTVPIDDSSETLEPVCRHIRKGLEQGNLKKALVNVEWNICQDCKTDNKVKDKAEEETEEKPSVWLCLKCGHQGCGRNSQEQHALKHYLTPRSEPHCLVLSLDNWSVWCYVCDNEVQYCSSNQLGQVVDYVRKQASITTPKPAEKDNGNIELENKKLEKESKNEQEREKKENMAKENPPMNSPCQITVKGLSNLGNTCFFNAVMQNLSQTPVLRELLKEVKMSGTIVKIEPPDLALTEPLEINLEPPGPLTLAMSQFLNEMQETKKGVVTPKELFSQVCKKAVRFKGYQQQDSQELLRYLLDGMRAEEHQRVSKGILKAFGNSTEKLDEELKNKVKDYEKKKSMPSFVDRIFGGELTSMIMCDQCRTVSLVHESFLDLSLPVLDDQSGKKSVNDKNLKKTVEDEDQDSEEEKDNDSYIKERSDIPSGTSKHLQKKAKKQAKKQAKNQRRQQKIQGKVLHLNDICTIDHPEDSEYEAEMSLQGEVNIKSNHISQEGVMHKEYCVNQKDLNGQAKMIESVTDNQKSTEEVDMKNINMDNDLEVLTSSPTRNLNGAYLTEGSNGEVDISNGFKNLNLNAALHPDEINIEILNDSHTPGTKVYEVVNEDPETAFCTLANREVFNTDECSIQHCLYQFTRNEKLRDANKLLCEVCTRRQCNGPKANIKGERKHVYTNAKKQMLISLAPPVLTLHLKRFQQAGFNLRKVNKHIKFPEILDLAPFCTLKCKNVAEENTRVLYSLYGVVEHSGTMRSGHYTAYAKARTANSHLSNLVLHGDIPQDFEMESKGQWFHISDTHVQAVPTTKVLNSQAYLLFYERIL
The target of the next experiment is T2, USP48 C39 (Q86UV5) (Homo sapiens, UniProt Q86UV5).
T2 sequence (Q86UV5 1-1035): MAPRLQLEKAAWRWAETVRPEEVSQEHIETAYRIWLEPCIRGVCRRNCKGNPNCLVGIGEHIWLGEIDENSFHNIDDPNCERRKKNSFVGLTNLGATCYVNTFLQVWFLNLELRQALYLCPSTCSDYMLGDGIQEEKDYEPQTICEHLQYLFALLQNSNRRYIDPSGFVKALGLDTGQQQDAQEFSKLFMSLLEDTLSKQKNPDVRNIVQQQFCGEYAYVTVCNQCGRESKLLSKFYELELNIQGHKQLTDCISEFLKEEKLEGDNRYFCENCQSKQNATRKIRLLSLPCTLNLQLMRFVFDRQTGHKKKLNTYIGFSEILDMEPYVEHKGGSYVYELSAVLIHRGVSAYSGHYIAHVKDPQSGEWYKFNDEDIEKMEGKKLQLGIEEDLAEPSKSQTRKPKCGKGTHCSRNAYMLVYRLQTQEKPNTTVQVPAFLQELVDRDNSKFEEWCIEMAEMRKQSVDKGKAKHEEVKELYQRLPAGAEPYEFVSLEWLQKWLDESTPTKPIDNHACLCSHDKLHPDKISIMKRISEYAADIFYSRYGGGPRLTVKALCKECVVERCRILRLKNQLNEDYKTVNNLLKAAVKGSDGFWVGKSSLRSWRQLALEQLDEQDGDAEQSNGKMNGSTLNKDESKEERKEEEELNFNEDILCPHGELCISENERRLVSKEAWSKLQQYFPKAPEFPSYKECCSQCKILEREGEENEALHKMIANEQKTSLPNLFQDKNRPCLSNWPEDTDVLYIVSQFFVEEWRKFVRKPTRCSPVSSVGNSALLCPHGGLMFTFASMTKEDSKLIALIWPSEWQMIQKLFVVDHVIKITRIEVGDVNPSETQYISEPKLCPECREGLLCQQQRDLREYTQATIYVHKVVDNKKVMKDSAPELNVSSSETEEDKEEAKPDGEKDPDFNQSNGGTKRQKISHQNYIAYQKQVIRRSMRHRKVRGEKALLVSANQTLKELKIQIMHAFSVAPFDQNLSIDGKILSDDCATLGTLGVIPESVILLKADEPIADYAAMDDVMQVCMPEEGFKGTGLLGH

Another experiment deals with CDK5 C157 (Q00535) (Homo sapiens, UniProt Q00535). The conditions noted are these: for isoTOP-ABPP ratio (reactivity profile), Q00535_C157: 500 μm in-vitro ramos.
Chain of CDK5 C157 (Q00535) (Q00535 whole entry): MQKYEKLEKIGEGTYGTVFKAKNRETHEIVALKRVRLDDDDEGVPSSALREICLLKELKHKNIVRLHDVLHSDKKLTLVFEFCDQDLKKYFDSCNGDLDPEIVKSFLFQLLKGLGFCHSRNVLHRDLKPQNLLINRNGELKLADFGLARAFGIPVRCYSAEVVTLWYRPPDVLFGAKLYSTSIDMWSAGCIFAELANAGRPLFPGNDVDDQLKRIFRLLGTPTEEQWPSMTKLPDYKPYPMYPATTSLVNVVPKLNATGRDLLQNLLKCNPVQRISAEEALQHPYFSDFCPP

On to `COc1ccc2c(c1)CCCN2C(=O)CCl` [compound 2], for which the “R value (DMSO/fragment)” value at NR3C1 C302 (P04150) is listed as 2.3; on USP16 C205 (Q9Y5T5) (500 μM, in vitro, MDA-MB-231) it was 20.0; on USP48 C39 (Q86UV5) (500 μM, invitro, ramos) it was 7.1; at CDK5 C157 (Q00535) (500 μM, invitro, ramos) it was 3.2.
For the molecule `O=C(CCl)Nc1cc(C(F)(F)F)cc(C(F)(F)F)c1` [compound 3], the “R value (DMSO/fragment)” value came to 7.6 at NR3C1 C302 (P04150); 8.8 on USP16 C205 (Q9Y5T5) (500 μM, invitro, ramos); 1.8 at USP48 C39 (Q86UV5) (500 μM, in vitro, MDA-MB-231); 1.5 at USP48 C39 (Q86UV5) (500 μM, invitro, ramos); 20.0 at CDK5 C157 (Q00535) (500 μM, invitro, ramos).
Regarding `COc1ccc(C2CC(c3cccs3)=NN2C(=O)CCl)cc1` (stereo not shown) [compound 4], the “R value (DMSO/fragment)” value at USP16 C205 (Q9Y5T5) (250 μM, in vitro, Ramos) was 20.0; at USP48 C39 (Q86UV5) (250 μM, in vitro, MDA-MB-231), 1.4; on USP48 C39 (Q86UV5) (250 μM, in vitro, Ramos) it was 1.4; at CDK5 C157 (Q00535) (250 μM, in vitro, Ramos), 1.3.
`C=CC(=O)N(c1ccccc1)c1ccc(Br)cc1` [compound 5]: the “isoTOP-ABPP ratio, Q9Y5T5_C205” value on USP16 C205 (Q9Y5T5) (500 μM, invitro, ramos) was found to be 1.1. Besides, the “isoTOP-ABPP ratio, Q86UV5_C39” value on USP48 C39 (Q86UV5) (500 μM, invitro, ramos) is listed as 1.2. Besides, the “isoTOP-ABPP ratio, Q00535_C157” value at CDK5 C157 (Q00535) (500 μM, invitro, ramos) was 20.0.
For the molecule `O=C(CCl)N1CCN(S(=O)(=O)c2ccccc2F)CC1` [compound 10], the “isoTOP-ABPP ratio, P04150_C302” value on NR3C1 C302 (P04150) (231) worked out at 4.1. For the same molecule, the “isoTOP-ABPP ratio, Q86UV5_C39” value on USP48 C39 (Q86UV5) (500 μM, invitro, 231) came to 2.5.
With `Cn1cc(S(=O)(=O)N2CCOCC2)cc1C(=O)NC(=O)CCl` [compound 11], the “isoTOP-ABPP ratio, P04150_C302” value on NR3C1 C302 (P04150) (ramos) is on record as 1.5. In addition, the “isoTOP-ABPP ratio, Q9Y5T5_C205” value at USP16 C205 (Q9Y5T5) (500 μM, invitro, 231) is listed as 20.0. In addition, the “isoTOP-ABPP ratio, Q86UV5_C39” value at USP48 C39 (Q86UV5) (500 μM, invitro, ramos) turned out to be 1.0. Moreover, the “isoTOP-ABPP ratio, Q00535_C157” value at CDK5 C157 (Q00535) (500 μM, invitro, ramos) is 1.3.
As to `O=C(CCl)NC(=O)NC12CC3CC(CC(C3)C1)C2` [compound 12], on NR3C1 C302 (P04150) (ramos), the “isoTOP-ABPP ratio, P04150_C302” value was found to be 1.3. Further, the “isoTOP-ABPP ratio, Q9Y5T5_C205” value at USP16 C205 (Q9Y5T5) (500 μM, invitro, 231) was 2.2. Also, the “isoTOP-ABPP ratio, Q00535_C157” value at CDK5 C157 (Q00535) (500 μM, invitro, ramos) amounted to 1.0.
Regarding `O=C(CCl)NCCc1c[nH]c2ccccc12` [compound 13], the “isoTOP-ABPP ratio, Q9Y5T5_C205” value at USP16 C205 (Q9Y5T5) (500 μM, invitro, ramos) is listed as 3.3. The “isoTOP-ABPP ratio, Q86UV5_C39” value came to 0.8 at USP48 C39 (Q86UV5) (500 μM, invitro, 231) and 0.6 on USP48 C39 (Q86UV5) (500 μM, invitro, ramos).
`C=CC(=O)N(Cc1cccnc1)c1ccc(Oc2ccccc2)c(C(F)(F)F)c1` [compound 15]: the “isoTOP-ABPP ratio (reactivity profile), P04150_C302” value at NR3C1 C302 (P04150) is given as 0.9. The “isoTOP-ABPP ratio (reactivity profile), Q86UV5_C39” value at USP48 C39 (Q86UV5) (500 μm in-vitro ramos) is on record as 0.7.
Take `O=C(CCl)N1CCC(C(O)(c2ccccc2)c2ccccc2)CC1` [compound 20]: the “isoTOP-ABPP ratio (reactivity profile), Q86UV5_C39” value stood at 1.8 at USP48 C39 (Q86UV5) (500 μm in-vitro ramos) and 1.1 at USP48 C39 (Q86UV5) (500 μm in-vitro ramos_231). Also, the “isoTOP-ABPP ratio (reactivity profile), Q00535_C157” value on CDK5 C157 (Q00535) was determined as 2.0.
For the molecule `O=C(CCl)NC12CC3CC(CC(C3)C1)C2` [compound 21], the “isoTOP-ABPP ratio (reactivity profile), Q9Y5T5_C205” value at USP16 C205 (Q9Y5T5) (500 μm in-vitro ramos_231) is given as 1.6. Moreover, the results for the “isoTOP-ABPP ratio (reactivity profile), Q86UV5_C39” value on USP48 C39 (Q86UV5) (500 μm in-vitro ramos) and on USP48 C39 (Q86UV5) (500 μm in-vitro ramos_231) were 1.2 and 20.0, respectively.
As for `O=C(CCl)N1CCOCC1` [compound 22], on NR3C1 C302 (P04150), the “isoTOP-ABPP ratio (reactivity profile), P04150_C302” value came to 0.9. The “isoTOP-ABPP ratio (reactivity profile), Q9Y5T5_C205” value at USP16 C205 (Q9Y5T5) (500 μm in-vitro ramos) is reported as 1.6. Also, the “isoTOP-ABPP ratio (reactivity profile), Q00535_C157” value at CDK5 C157 (Q00535) came out at 0.9.
Take `N#C/C(=C\c1cc(C(F)(F)F)cc(C(F)(F)F)c1)C(N)=O` [compound 23]: on NR3C1 C302 (P04150), the “isoTOP-ABPP ratio (reactivity profile), P04150_C302” value came out at 4.7. Besides, the “isoTOP-ABPP ratio (reactivity profile), Q9Y5T5_C205” value at USP16 C205 (Q9Y5T5) (500 μm in-vitro ramos) turned out to be 1.2. Also, at USP48 C39 (Q86UV5) (500 μm in-vitro ramos), the “isoTOP-ABPP ratio (reactivity profile), Q86UV5_C39” value was found to be 1.3. Besides, the “isoTOP-ABPP ratio (reactivity profile), Q00535_C157” value at CDK5 C157 (Q00535) was 2.8.
For the molecule `CC(Br)C(=O)Nc1cc(C(F)(F)F)cc(C(F)(F)F)c1` (stereo not shown) [compound 24], the “isoTOP-ABPP ratio (reactivity profile), Q86UV5_C39” value at USP48 C39 (Q86UV5) (500 μm in-vitro ramos) is reported as 1.0.
Regarding `CC(Cl)C(=O)Nc1cc(C(F)(F)F)cc(C(F)(F)F)c1` (stereo not shown) [compound 25], the “isoTOP-ABPP ratio (reactivity profile), Q86UV5_C39” value at USP48 C39 (Q86UV5) (500 μm in-vitro ramos_231) amounted to 1.0.
Turning to `O=C(/C=C/c1ccccc1)Nc1cc(C(F)(F)F)cc(C(F)(F)F)c1` [compound 26], the “isoTOP-ABPP ratio (reactivity profile), Q00535_C157” value on CDK5 C157 (Q00535) stood at 0.9.
